Results on 2 compounds are retold here after ChEMBL document CHEMBL1201862, “PubChem BioAssay data set” (2004).

As a reminder, the Ki is a dissociation constant, usually derived from enzyme kinetics or from competition with a known ligand.

Assay [1] addresses Platelet-derived growth factor receptor beta (Homo sapiens, UniProt P09619). Format: functional.
The target in assay [2] is Calcium/calmodulin-dependent protein kinase type II subunit alpha (Homo sapiens, UniProt Q9UQM7). In words: Navigating the Kinome. Panel member name: CAMK2A. Format: functional.
Assay [3] has as its target Maternal embryonic leucine zipper kinase (Homo sapiens, UniProt Q14680). Format: functional.
The target in assay [4] is Serine/threonine-protein kinase TBK1 (Homo sapiens, UniProt Q9UHD2). Nature of the assay: Navigating the Kinome. Panel member name: TBK1. Format: functional.
Assay [5] deals with Dual specificity protein kinase CLK2 (Homo sapiens, UniProt P49760). Format: functional.
The target in assay [6] is Serine/threonine-protein kinase N2 (Homo sapiens, UniProt Q16513). Format: functional.
The target of assay [7] is Serine/threonine-protein kinase D3 (Homo sapiens, UniProt O94806). Format: functional.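 Note: determined within a kinase panel screen, with PRKCN as the panel member.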
The target in assay [8] is Tyrosine-protein kinase BTK (Homo sapiens, UniProt Q06187). Format: functional.
Assay [9] concerns the target Casein kinase I isoform alpha (Homo sapiens, UniProt P48729). Format: functional.
Assay [10] has as its target Mitogen-activated protein kinase 14 (Homo sapiens, UniProt Q16539). Format: functional.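 Note: part of a kinome-wide panel, MAPK14 entry.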
Assay [11] deals with Serine/threonine-protein kinase 17A (Homo sapiens, UniProt Q9UEE5). Format: functional.
Sequence of Serine/threonine-protein kinase 17A (Q9UEE5 whole entry): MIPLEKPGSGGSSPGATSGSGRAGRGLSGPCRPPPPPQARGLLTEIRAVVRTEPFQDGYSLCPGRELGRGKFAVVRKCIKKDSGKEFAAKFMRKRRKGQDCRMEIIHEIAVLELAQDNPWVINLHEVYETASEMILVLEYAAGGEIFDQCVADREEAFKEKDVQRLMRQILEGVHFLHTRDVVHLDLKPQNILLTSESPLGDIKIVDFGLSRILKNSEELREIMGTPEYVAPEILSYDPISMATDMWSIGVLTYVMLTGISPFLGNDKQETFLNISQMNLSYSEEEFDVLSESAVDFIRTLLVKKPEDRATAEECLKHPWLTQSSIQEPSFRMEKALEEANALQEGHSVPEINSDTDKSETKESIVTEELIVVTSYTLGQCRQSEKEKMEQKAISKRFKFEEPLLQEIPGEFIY
In assay [12] the target is Activated CDC42 kinase 1 (Homo sapiens, UniProt Q07912). Nature of the assay: Navigating the Kinome. Panel member name: ACK1. Format: functional.
Assay [13] addresses ALK tyrosine kinase receptor (Homo sapiens, UniProt Q9UM73). Format: functional.
Assay [14] addresses Dual specificity mitogen-activated protein kinase kinase 1 (Homo sapiens, UniProt Q02750). In words: Navigating the Kinome. Panel member name: MAP2K1. Format: functional.
In assay [15] the target is Serine/threonine-protein kinase TAO1 (Homo sapiens, UniProt Q7L7X3). Format: functional.
Sequence of Serine/threonine-protein kinase TAO1 (Q7L7X3 whole entry): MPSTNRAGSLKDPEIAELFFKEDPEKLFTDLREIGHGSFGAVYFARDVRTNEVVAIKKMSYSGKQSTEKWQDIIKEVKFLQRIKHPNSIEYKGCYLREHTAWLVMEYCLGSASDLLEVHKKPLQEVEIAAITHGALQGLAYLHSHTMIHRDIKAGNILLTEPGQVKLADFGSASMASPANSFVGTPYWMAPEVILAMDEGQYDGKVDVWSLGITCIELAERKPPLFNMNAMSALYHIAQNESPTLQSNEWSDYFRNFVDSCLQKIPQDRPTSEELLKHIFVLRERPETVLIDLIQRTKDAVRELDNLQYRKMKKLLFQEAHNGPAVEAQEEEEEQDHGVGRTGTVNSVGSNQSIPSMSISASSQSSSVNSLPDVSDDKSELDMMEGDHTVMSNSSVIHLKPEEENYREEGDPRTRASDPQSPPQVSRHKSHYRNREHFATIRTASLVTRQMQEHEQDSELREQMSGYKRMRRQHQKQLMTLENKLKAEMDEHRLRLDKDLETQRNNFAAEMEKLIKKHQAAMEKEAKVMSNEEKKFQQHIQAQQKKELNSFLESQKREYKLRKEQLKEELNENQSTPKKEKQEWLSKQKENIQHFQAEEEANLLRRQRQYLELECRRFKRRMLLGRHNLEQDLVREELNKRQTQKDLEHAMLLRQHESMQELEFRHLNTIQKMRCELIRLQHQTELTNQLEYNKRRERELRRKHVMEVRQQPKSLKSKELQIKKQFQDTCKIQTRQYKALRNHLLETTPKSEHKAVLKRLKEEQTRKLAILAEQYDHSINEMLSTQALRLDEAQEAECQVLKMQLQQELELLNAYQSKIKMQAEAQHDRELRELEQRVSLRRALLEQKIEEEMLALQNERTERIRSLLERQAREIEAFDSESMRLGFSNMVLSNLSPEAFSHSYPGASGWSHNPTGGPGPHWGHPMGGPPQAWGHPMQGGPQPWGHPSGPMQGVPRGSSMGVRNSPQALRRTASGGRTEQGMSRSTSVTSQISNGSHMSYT
Assay [16] addresses Tyrosine-protein kinase receptor TYRO3 (Homo sapiens, UniProt Q06418). Format: functional.
For assay [17], the target named is Dual specificity protein kinase CLK4 (Homo sapiens, UniProt Q9HAZ1). Format: functional.
Assay [18] has as its target Leukocyte tyrosine kinase receptor (Homo sapiens, UniProt P29376). In words: Navigating the Kinome. Panel member name: LTK. Format: functional.
For assay [19], the target named is Dual specificity mitogen-activated protein kinase kinase 2 (Homo sapiens, UniProt P36507). Nature of the assay: Navigating the Kinome. Panel member name: MAP2K2. Format: functional.
Sequence of Dual specificity mitogen-activated protein kinase kinase 2 (P36507 whole entry): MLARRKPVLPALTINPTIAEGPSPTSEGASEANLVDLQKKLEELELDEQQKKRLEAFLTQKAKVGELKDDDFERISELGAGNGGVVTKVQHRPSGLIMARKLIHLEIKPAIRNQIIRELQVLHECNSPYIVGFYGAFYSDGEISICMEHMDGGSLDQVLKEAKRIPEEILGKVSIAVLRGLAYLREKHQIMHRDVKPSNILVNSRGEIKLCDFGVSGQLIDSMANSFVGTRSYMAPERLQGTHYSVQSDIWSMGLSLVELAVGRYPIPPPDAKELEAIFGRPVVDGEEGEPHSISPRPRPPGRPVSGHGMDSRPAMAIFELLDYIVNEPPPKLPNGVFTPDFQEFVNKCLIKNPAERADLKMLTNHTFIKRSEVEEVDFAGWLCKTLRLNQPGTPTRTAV
Assay [20] has as its target Misshapen-like kinase 1 (Homo sapiens, UniProt Q8N4C8). Format: functional.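 Note: kinome panel screen with MINK as the panel member.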
For assay [21], the target named is Cell division cycle 7-related protein kinase (Homo sapiens, UniProt O00311). Format: functional.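 Note: value obtained from a kinome-wide kinase panel.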
For assay [22], the target named is cAMP-dependent protein kinase catalytic subunit PRKX (Homo sapiens, UniProt P51817). Format: functional.
The target of assay [23] is 3-phosphoinositide-dependent protein kinase 1 (Homo sapiens, UniProt O15530). Format: functional.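 Note: value comes from the Navigating the Kinome panel, PDPK1 member.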
Assay [24] concerns the target RAC-alpha serine/threonine-protein kinase (Homo sapiens, UniProt P31749). Format: functional.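 Note: AKT1 affinity measured as one member of a kinome-wide kinase profiling panel.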
The target in assay [25] is Epidermal growth factor receptor (Homo sapiens, UniProt P00533).
Sequence of Epidermal growth factor receptor (P00533 whole entry): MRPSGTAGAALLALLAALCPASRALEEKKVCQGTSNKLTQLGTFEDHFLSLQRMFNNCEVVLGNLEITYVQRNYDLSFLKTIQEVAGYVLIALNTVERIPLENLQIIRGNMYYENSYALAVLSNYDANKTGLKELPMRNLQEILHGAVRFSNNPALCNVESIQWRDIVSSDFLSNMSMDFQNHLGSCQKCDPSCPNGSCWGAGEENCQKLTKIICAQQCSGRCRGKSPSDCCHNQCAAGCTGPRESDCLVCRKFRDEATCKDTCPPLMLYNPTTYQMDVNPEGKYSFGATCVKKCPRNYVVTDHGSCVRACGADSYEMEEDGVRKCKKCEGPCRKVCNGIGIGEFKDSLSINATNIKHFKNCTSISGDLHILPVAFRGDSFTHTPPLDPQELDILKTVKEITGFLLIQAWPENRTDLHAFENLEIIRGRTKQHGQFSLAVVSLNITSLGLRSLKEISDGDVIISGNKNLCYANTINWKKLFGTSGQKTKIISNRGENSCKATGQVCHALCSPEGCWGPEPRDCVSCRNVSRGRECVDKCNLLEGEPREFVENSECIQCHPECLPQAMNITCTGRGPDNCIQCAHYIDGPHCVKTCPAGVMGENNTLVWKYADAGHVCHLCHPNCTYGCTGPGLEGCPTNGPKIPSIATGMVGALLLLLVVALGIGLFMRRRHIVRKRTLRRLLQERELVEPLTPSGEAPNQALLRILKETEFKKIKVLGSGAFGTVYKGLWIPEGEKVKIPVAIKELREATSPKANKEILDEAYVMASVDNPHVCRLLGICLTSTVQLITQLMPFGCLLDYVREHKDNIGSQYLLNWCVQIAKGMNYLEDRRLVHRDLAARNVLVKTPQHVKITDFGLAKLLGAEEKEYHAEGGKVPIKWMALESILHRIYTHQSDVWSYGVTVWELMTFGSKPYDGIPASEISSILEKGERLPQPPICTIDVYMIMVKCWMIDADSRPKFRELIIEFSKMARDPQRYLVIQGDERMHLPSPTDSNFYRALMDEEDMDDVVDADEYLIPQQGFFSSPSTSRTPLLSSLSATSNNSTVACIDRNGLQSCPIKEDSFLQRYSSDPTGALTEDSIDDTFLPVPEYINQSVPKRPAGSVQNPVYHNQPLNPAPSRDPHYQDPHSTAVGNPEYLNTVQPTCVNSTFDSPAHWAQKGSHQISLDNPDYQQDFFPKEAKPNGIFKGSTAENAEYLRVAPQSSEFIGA
The target in assay [26] is Tyrosine-protein kinase ITK/TSK (Homo sapiens, UniProt Q08881). Format: functional.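 Note: affinity for ITK measured as one member of a broad kinase panel profiling binding across the kinome.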
Assay [27] concerns the target Casein kinase I isoform delta (Homo sapiens, UniProt P48730). Format: functional.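 Note: measured as one member (CSNK1D) of a kinome panel.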
Assay [28] addresses Inhibitor of nuclear factor kappa-B kinase subunit alpha (Homo sapiens, UniProt O15111). Format: functional.
Assay [29] addresses Serine/threonine-protein kinase Nek2 (Homo sapiens, UniProt P51955). Format: functional.
For assay [30], the target named is MAP kinase-activated protein kinase 2 (Homo sapiens, UniProt P49137). Format: functional.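 Note: measured as one member of a kinome-wide kinase panel.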
The target of assay [31] is Vascular endothelial growth factor receptor 3 (Homo sapiens, UniProt P35916). Format: functional.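 Note: value from a kinome-wide profiling panel, with FLT4 as the panel member.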
Sequence of Vascular endothelial growth factor receptor 3 (P35916 whole entry): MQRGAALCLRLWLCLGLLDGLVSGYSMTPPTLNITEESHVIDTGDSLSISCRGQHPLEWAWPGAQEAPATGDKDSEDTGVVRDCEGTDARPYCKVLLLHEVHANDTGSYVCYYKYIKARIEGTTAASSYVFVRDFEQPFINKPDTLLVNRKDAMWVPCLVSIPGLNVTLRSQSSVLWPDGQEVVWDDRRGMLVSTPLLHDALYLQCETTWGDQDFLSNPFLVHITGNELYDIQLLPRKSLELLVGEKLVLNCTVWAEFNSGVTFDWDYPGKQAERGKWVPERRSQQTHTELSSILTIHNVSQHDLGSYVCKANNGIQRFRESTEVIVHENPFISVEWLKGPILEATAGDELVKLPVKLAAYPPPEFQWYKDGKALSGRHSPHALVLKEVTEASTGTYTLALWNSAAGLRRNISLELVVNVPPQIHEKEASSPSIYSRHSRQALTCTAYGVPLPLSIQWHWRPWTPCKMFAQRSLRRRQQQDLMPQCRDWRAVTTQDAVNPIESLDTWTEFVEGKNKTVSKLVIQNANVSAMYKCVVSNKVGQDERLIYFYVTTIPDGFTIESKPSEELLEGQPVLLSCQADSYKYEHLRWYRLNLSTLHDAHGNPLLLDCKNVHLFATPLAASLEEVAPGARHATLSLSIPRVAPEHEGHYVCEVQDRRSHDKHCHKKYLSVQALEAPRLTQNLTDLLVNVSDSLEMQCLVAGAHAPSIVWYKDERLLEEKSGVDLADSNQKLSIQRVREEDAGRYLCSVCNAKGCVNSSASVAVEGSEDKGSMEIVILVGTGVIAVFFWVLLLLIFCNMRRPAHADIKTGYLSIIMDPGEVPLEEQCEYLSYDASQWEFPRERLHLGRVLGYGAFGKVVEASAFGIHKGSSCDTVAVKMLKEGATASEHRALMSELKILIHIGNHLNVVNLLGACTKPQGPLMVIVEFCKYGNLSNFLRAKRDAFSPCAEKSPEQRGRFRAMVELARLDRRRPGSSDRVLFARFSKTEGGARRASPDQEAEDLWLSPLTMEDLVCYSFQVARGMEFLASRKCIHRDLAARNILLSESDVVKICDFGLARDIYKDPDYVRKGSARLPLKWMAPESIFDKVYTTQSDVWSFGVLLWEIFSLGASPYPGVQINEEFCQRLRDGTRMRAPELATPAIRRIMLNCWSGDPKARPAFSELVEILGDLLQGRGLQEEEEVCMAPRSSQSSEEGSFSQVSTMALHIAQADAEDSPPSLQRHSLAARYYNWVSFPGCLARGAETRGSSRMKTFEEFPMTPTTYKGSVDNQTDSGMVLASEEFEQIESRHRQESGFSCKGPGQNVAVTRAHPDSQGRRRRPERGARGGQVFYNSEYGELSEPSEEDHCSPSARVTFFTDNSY
Assay [32] deals with Rho-associated protein kinase 2 (Homo sapiens, UniProt O75116). Format: functional.
Assay [33] addresses Mitogen-activated protein kinase 12 (Homo sapiens, UniProt P53778). Format: functional.
In assay [34] the target is Serine/threonine-protein kinase D2 (Homo sapiens, UniProt Q9BZL6). Format: functional.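 Note: measured against PRKD2 as one member of a kinome-wide kinase profiling panel.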
The target in assay [35] is Protein kinase C delta type (Homo sapiens, UniProt Q05655). Format: functional.
Assay [36] deals with Serine/threonine-protein kinase PAK 1 (Homo sapiens, UniProt Q13153). Format: functional.
Assay [37] addresses Cyclin-dependent kinase 5 (Homo sapiens, UniProt Q00535). Format: functional.
Assay [38] deals with Serine/threonine-protein kinase pim-2 (Homo sapiens, UniProt Q9P1W9). Format: functional.
The target in assay [39] is Serine/threonine-protein kinase Chk2 (Homo sapiens, UniProt O96017). Format: functional.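 Note: CHEK2 entry within a kinome-wide screening panel.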
The target in assay [40] is MAP kinase-activated protein kinase 3 (Homo sapiens, UniProt Q16644). Format: functional.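 Note: value comes from a kinome-wide profiling panel in which MAPKAPK3 is one of the panel members.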
Assay [41] has as its target Calcium/calmodulin-dependent protein kinase type 1 (Homo sapiens, UniProt Q14012). Format: functional.
Assay [42] deals with MAP/microtubule affinity-regulating kinase 3 (Homo sapiens, UniProt P27448). Format: functional.
Assay [43] has as its target Mitogen-activated protein kinase 1 (Homo sapiens, UniProt P28482). Format: functional.
Assay [44] concerns the target Serine/threonine-protein kinase Chk1 (Homo sapiens, UniProt O14757). Format: functional.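 Note: measured as one member of a kinome-wide kinase profiling panel.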
The target of assay [45] is Ribosomal protein S6 kinase beta-1 (Homo sapiens, UniProt P23443). Format: functional.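 Note: measured as one member of a kinome-wide profiling panel.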
In assay [46] the target is Tyrosine-protein kinase Lyn (Homo sapiens, UniProt P07948). Format: functional.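 Note: lyn as one member of a kinase panel.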
For assay [47], the target named is Proto-oncogene tyrosine-protein kinase Src (Homo sapiens, UniProt P12931). Format: functional.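 Note: SRC entry within a kinome-wide kinase profiling panel.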

Calls of active or inactive are those of the source.

Sequence of Serine/threonine-protein kinase Chk1 (O14757 whole entry): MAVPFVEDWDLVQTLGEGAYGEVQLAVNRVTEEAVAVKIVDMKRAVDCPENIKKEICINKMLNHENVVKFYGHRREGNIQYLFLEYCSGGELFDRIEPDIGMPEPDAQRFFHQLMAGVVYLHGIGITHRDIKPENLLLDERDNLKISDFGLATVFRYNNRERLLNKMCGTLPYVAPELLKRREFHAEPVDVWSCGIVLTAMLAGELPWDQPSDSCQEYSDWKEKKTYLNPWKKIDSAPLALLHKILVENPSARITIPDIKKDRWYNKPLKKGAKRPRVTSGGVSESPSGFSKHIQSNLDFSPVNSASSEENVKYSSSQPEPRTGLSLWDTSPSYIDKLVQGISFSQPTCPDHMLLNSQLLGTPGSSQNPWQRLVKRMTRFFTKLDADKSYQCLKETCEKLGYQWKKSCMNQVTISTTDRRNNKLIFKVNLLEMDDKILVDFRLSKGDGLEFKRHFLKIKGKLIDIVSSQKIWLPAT

For `CN(C)C1CCC(Nc2nc(Cl)cc(-c3c[nH]c4ncccc34)n2)CC1` (configuration not stated), the inhibitory constant (Ki) was 1 µM (active) in assay [1]; 0.398 µM (active) in assay [2]; 0.00316 µM (active) in assay [3]; 2 µM (active) in assay [4]; 0.0398 µM (active) in [5]; 0.01 µM (active) in assay [6]. Also, the inhibitory constant (Ki) is 0.0158 µM (active) in assay [7]; > 6.31 µM (inactive) in [8]; 0.251 µM (active) in [9]; > 3.98 µM (inactive) in [10]; 0.126 µM (active) in assay [11]; > 3.98 µM (inactive) in assay [12]. For the same compound, the Ki in [13] was 1.58 µM (active); in assay [14] it was 0.2 µM (active); in assay [15], > 6.31 µM (inactive); in [16], > 3.16 µM (inactive); in assay [17], 0.00251 µM (active); in assay [18], 0.501 µM (active). Also, the inhibition constant Ki in assay [19] is 0.316 µM (active); in [20] it was 0.0316 µM (active); in assay [21], 0.000316 µM (active); in assay [22], 0.0251 µM (active).
As for `NC(COc1cncc(-c2cc3ccncc3s2)c1)Cc1c[nH]c2ccccc12` (configuration not stated), the inhibition constant (Ki) in [23] was 0.251 µM (active); in assay [24] it was 0.0126 µM (active); in [25] it was 1.58 µM (active); in [26], > 1.58 µM (inactive); in [27], 0.794 µM (active); in [28] it was > 3.98 µM (inactive). The Ki in assay [29] is > 10 µM (inactive); in assay [30], > 7.94 µM (inactive); in [31] it was 0.1 µM (active); in assay [32] it was 0.01 µM (active); in assay [33], 2 µM (active); in [34], 0.316 µM (active). Also, the Ki in assay [35] is 0.0501 µM (active); in assay [36], 0.794 µM (active); in assay [37], 0.316 µM (active); in assay [38] it was > 1.58 µM (inactive); in assay [39], 0.398 µM (active); in assay [40], > 10 µM (inactive). In addition, the Ki in assay [41] was 3.16 µM (active); in assay [42], 0.398 µM (active); in assay [43], 0.251 µM (active); in assay [44] it was 3.98 µM (active); in [45], 0.00631 µM (active); in assay [46], > 1.58 µM (inactive). Besides, the Ki in assay [47] is > 2.51 µM (inactive).
